Source: publication PMC6688371, “Effect of the inhaled PDE4 inhibitor CHF6001 on biomarkers of inflammation in COPD” (Respiratory Research, 2019)
Like-named read-outs stand apart in the source and are kept apart here. Marks after values point to notes of the source that are not given here.

How the values were obtained:
patients with COPD = experiment: Spirometry and symptoms (FEV1, FVC, CAT, TDI); type: in vivo, human; details: for TDI, adjusted mean difference vs placebo (95% CI): Day 32; for CAT, adjusted mean difference vs placebo (95% CI) / Pre-dose FEV1, adjusted mean difference vs placebo (95% CI) / Pre-dose FVC, adjusted mean difference vs placebo (95% CI): change from baseline to Day 32
Protocol: (§1) Induced sputum was collected pre-dose on Day 1 of each treatment period (for the first treatment period, the sample could be collected up to 10 days prior to Day 1), and 2 h post-dose on Days 20, 26 and 32 (see the Additional file 1 for further detail on sputum and blood analysis methods). Blood samples were taken pre-dose on Day 1, and pre-dose and at 30 min, and 1, 1.5, 2, 3, 4, 6, 8 and 12 h post-dose on Day 32. Other pre-dose assessments on Days 1 and 32 were spirometry (forced expiratory volume in 1 s [FEV1] and forced vital capacity [FVC]), forced oscillometry, and COPD Assessment Test (CAT), with Baseline Dyspnea Index recorded on Day 1 and Transition Dyspnea Index (TDI) on Day 32. Central and peripheral airways mechanics were assessed using forced oscillometry, with the following values determined: inspiratory and expiratory resistance (at 5 and 19 Hz), inspiratory and expiratory reactance, tidal expiratory flow limitation and the percentage of flow limited breaths.
(§2) The mean changes from baseline to Day 32 for lung function, CAT and TDI were analysed using similar methodology to sputum biomarkers, but were not log-transformed. […] The sputum concentration of CHF6001 was also evaluated at 2 h post-dose, using the mean of all values measured on Days 20, 26 and 32. Pharmacokinetic variables were summarised using geometric means and coefficients of variation, except for Tmax,ss, which is presented as median (range).

[1] = Plasma pharmacokinetics at steady state (Day 32); type: in vivo, human; details: for Tmax,ss / CL/F / Cmax / AUC(0-t): plasma on Day 32; for Tmax,ss: median (range); for CL/F / Cmax / AUC(0-t): both sexes, human, inhaled or intranasal, geometric mean (%CV); for AUC(0-t): read-out: AUC0–12,ss
Protocol: as §1
as §2, with “(range). […]” for “(range).”
Validation procedures again followed those outlined for the analysis of biomarkers above. All […]
concentrations of biomarkers in human serum or plasma from regulatory studies.
Blood for the pharmacokinetic analysis was collected pre-dose and at 30 min, and 1, 1.5, 2, 3, 4, 6, 8 and 12 h post-dose on Day 32 of each treatment period. Samples were centrifuged at 2000 g for 15 min at 4C, with the resulting plasma shipped to the central laboratory at –60 […]
(§3) to –90C. The plasma concentration of CHF6001 was evaluated using a LC-MS/MS method following solid phase extraction. Validation procedures again followed those outlined for the analysis of biomarkers above. The bioanalytical method wa s found to be linear over the calibration range of 10 to 20,000 pg/mL. The precision and accuracy of the method was found to be within the target limits of within 20% at the lower limit of quantification 10 pg/mL and within 15% at all other concentrations.
(§4) The recovery of CHF6001 from human plasma was consistent across the analytical range , with no significant matrix effects. […]
(§5) for up to 24 h at the sample processing temperature (nominally +20C), a fter storage for 184 days in a freezer (nominally –80C) and after four freeze-thaw cycles at nominally – 80C / +20C. Therefore the method was considered to be suitable for measuring concentrations of CHF6001 in human plasma samples from regulatory studies.
(§6) The study was approved by two centralised ethics committees on behalf of the sites:
(§7) • UK: Health Research Authority, North West, Greater Manchester South Research Ethics Committee, Manchester (approval reference 16/NW/0553).
(§8) • Germany: Ethics Committee of Hesse Medical Association, Frankfurt am Main (approval reference FF 98/2016).
(§9) Patients had to meet all the following inclusion criteria to be eligible for enrolment into the […]
(§10) 1. Written informed consent obtained prior to any study-related procedures;
(§11) 2. Male or female aged ≥40 years;
(§12) 3. A female was eligible to enter the study if they were of non-childbearing potential, i.e. physiologically incapable of becoming pregnant (e.g. postmenopausal women defined as being amenorrhoeic for ≥12 consecutive months without an alternative medical cause. If indicated, as per Investigator’s request, post -menopausal status

[2] = Stability of CHF6001 in human plasma (bioanalytical validation); type: in vitro ADME
Protocol: as §3, with “Effect of CHF6001 on inflammatory biomarkers – Additional file 1 to –90C.” for “to –90C.”
as §4, §5, §6, §7, §8, §9, §10, §11, §12

Q: Which “TDI, adjusted mean difference vs placebo (95% CI)” value (patients with COPD; 800 µg BID) does the source give for `CS(=O)(=O)Nc1ccc(C(=O)O[C@@H](Cc2c(Cl)c[n+]([O-])cc2Cl)c2ccc(OC(F)F)c(OCC3CC3)c2)cc1OCC1CC1` [CHF6001] here?
A: 0.3 (–0.1 to 0.8)

Q: And the “CAT, adjusted mean difference vs placebo (95% CI)” value (patients with COPD; 800 µg BID)?
A: –0.3 (–1.4 to 0.8)

Q: And the “Pre-dose FEV1, adjusted mean difference vs placebo (95% CI)” value (patients with COPD; 800 µg BID)?
A: 13 (–26 to 52) mL

Q: And the “Pre-dose FVC, adjusted mean difference vs placebo (95% CI)” value (patients with COPD; 800 µg BID)?
A: 25 (–58 to 109) mL

Q: And the “TDI, adjusted mean difference vs placebo (95% CI)” value (patients with COPD; 1600 µg BID)?
A: –0.1 (–0.6 to 0.4)

Q: What about the “CAT, adjusted mean difference vs placebo (95% CI)” value (patients with COPD; 1600 µg BID) of the same molecule?
A: –0.3 (–1.3 to 0.8)

Q: What about the “Pre-dose FEV1, adjusted mean difference vs placebo (95% CI)” value (patients with COPD; 1600 µg BID) of the same molecule?
A: –35 (–74 to 4) mL

Q: What about the “Pre-dose FVC, adjusted mean difference vs placebo (95% CI)” value (patients with COPD; 1600 µg BID) of the same molecule?
A: –26 (–109 to 58) mL

Q: And the “Lung function (FEV1 and FVC) or symptoms vs placebo” value (patients with COPD; either dose (800 or 1600 μg BID))?
A: Neither CHF6001 dose differed from placebo

Q: And the “Tmax,ss” value ([1]; 800 μg BID inhaled)?
A: 2.00 (0.50; 4.08)^a h

Q: And the “Tmax,ss” value ([1]; 1600 μg BID inhaled)?
A: 2.00 (0.48; 4.05)^b h

Q: And the “Systemic exposure in relation to dose” value ([1]; Day 32, 800 vs 1600 μg BID)?
A: broadly proportional to dose

Q: And the CL/F ([1]; 800 ug, 800 μg BID inhaled)?
A: 603 mL/min

Q: What about the Cmax ([1]; 800 ug, 800 μg BID inhaled) of the same molecule?
A: 2.44 ng/mL

Q: What about the AUC(0-t) ([1]; 800 ug, 800 μg BID inhaled) of the same molecule?
A: 0.0221 µg·h/mL

Q: And the CL/F ([1]; 1600 ug, 1600 μg BID inhaled)?
A: 653 mL/min

Q: What about the Cmax ([1]; 1600 ug, 1600 μg BID inhaled) of the same molecule?
A: 4.5 ng/mL

Q: And the AUC(0-t) ([1]; 1600 ug, 1600 μg BID inhaled)?
A: 0.0408 µg·h/mL

Q: And the “Storage time found stable in human plasma” value ([2]; freezer (nominally –80C))?
A: 184 days

Q: And the “Freeze-thaw cycles found stable in human plasma” value ([2]; nominally –80C / +20C)?
A: four

Q: What about the “Time found stable in human plasma” value ([2]; sample processing temperature (nominally +20C)) of the same molecule?
A: up to 24 h
